Patent US20150038438A1, “ANTIBACTERIAL COMPOUNDS AND METHODS FOR USE” (PTC THERAPEUTICS, INC., priority 2011, published 2015)
In brackets after ≈: the same amount, converted by molar mass. Counter-ions that a name gives are not always drawn. Like-named read-outs stand apart in the source and are kept apart here.

Assays:
Experiment in all cases: Antibacterial activity, microbroth dilution method (MIC)
[1] = test system: control Gram-negative E. coli 25922 strain; assay type: cell-based, Escherichia coli; conditions: Escherichia coli
Method in brief: (§1)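 Potency is reported as minimum inhibitory concentration in μg/mL, determined by broth microdilution as the lowest level of compound that stops growth visible to the eye.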

[2] = test system: Gram-positive Staphylococcus aureus (S. aureus) 29213; assay type: cell-based; conditions: Staphylococcus aureus, Gram-positive S. aureus 29213
Method in brief: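 MIC (μg/mL) is taken as the lowest concentration with no macroscopically visible growth. Strains tested by microbroth dilution: Gram-positive S. aureus 29213, control Gram-negative E. coli 25922, and super-sensitive E. coli BAS849.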

[3] = test system: super sensitive Gram-negative Escherichia coli (E. coli) BAS849; assay type: cell-based; conditions: Escherichia coli, read-out: MIC, E. coli BAS849
Method in brief: as §1

[4] = super sensitive Gram-negative E. coli BAS849, microbroth dilution

Row | Compound | MIC [1] | MIC [2] | MIC [3, 4] | MIC [3]
1 | CN(C)C1CCN(c2ccc3c(c2)NCCc2c-3[nH]c(=O)c(C(=O)O)c2O)C1.Cl (stereo not drawn) [Cpd 95, 9-(3-(dimethylamino)pyrrolidin-1-yl)-4-hydroxy-2-oxo-2,5,6,7-tetrahydro-1H-benzo[b]pyrido[2,3-d]azepine-3-carboxylic acid hydrochloride] | 3.5 to 12.5 µg/mL | 12.5 to 150 µg/mL | 3.5 to 12.5 µg/mL | 
2 | CN1CCN(c2ccc3c(c2)NCCc2c-3[nH]c(=O)c(C(=O)O)c2O)CC1.Cl [Cpd 96, 4-hydroxy-9-(4-methylpiperazin-1-yl)-2-oxo-2,5,6,7-tetrahydro-1H-benzo[b]pyrido[2,3-d]azepine-3-carboxylic acid hydrochloride] | 12.5 to 150 µg/mL | 12.5 to 150 µg/mL | 3.5 to 12.5 µg/mL | 
3 | N[C@@H]1[C@H]2CN(c3ccc4c(c3)NCCc3c-4[nH]c(=O)c(C(=O)O)c3O)C[C@@H]12 [Cpd 97, 9-((cis,cis)-6-amino-3-azabicyclo[3.1.0]hexan-3-yl)-4-hydroxy-2-oxo-2,5,6,7-tetrahydro-1H-benzo[b]pyrido[2,3-d]azepine-3-carboxylic acid hydrochloride] | 3.5 to 12.5 µg/mL | 12.5 to 150 µg/mL | 1 to 3.5 µg/mL | 
4 | Cl.O=C(O)c1c(O)c2c([nH]c1=O)-c1ccc(N3CC4CCCNC4C3)cc1NCC2 (stereo not drawn) [Cpd 98, 9-(hexahydro-1H-pyrrolo[3,4-b]pyridin-6(2H)-yl)-4-hydroxy-2-oxo-2,5,6,7-tetrahydro-1H-benzo[b]pyrido[2,3-d]azepine-3-carboxylic acid hydrochloride] | 12.5 to 150 µg/mL | 12.5 to 150 µg/mL | 12.5 to 150 µg/mL | 
5 | CNCc1cc2cc3c(cc2n1C)NCCc1c-3[nH]c(=O)c(C(=O)O)c1O.Cl [Cpd 99, 4-hydroxy-9-methyl-10-((methylamino)methyl)-2-oxo-1,2,5,6,7,9-hexahydropyrido[2′,3′:4,5]azepino[3,2-f]indole-3-carboxylic acid hydrochloride] | 12.5 to 150 µg/mL | 12.5 to 150 µg/mL | 1 to 3.5 µg/mL | 
6 | CCNCc1cc2cc3c(cc2n1C)NCCc1c-3[nH]c(=O)c(C(=O)O)c1O.Cl [Cpd 100, 10-((ethylamino)methyl)-4-hydroxy-9-methyl-2-oxo-1,2,5,6,7,9-hexahydropyrido[2′,3′:4,5]azepino[3,2-f]indole-3-carboxylic acid hydrochloride] | 12.5 to 150 µg/mL | 12.5 to 150 µg/mL | 1 to 3.5 µg/mL | 
7 | CC(C)NCc1cc2cc3c(cc2n1C)NCCc1c-3[nH]c(=O)c(C(=O)O)c1O.Cl [Cpd 101, 4-hydroxy-10-((isopropylamino)methyl)-9-methyl-2-oxo-1,2,5,6,7,9-hexahydropyrido[2′,3′:4,5]azepino[3,2-f]indole-3-carboxylic acid hydrochloride] | 3.5 to 12.5 µg/mL | 12.5 to 150 µg/mL | 1 to 3.5 µg/mL | 
8 | Cl.Cn1c(CNC(C)(C)C)cc2cc3c(cc21)NCCc1c-3[nH]c(=O)c(C(=O)O)c1O [Cpd 102, 10-((tert-butylamino)methyl)-4-hydroxy-9-methyl-2-oxo-1,2,5,6,7,9-hexahydropyrido[2′,3′:4,5]azepino[3,2-f]indole-3-carboxylic acid hydrochloride] | 3.5 to 12.5 µg/mL | 12.5 to 150 µg/mL | 1 to 3.5 µg/mL | 
9 | CNCc1cc2cc3c(cc2n1C)NCCCc1c-3[nH]c(=O)c(C(=O)O)c1O.Cl [Cpd 103, 4-hydroxy-10-methyl-11-((methylamino)methyl)-2-oxo-2,5,6,7,8,10-hexahydro-1H-pyrido[2′,3′:4,5]azocino[3,2-f]indole-3-carboxylic acid hydrochloride] | 12.5 to 150 µg/mL | 12.5 to 150 µg/mL | 1 to 3.5 µg/mL | 
10 | CCNCc1cc2cc3c(cc2n1C)NCCCc1c-3[nH]c(=O)c(C(=O)O)c1O.Cl [Cpd 104, 11-((ethylamino)methyl)-4-hydroxy-10-methyl-2-oxo-2,5,6,7,8,10-hexahydro-1H-pyrido[2′,3′:4,5]azocino[3,2-f]indole-3-carboxylic acid hydrochloride] | 3.5 to 12.5 µg/mL | 12.5 to 150 µg/mL | 1 to 3.5 µg/mL | 
11 | CC(C)NCc1cc2cc3c(cc2n1C)NCCCc1c-3[nH]c(=O)c(C(=O)O)c1O.Cl [Cpd 105, 4-hydroxy-11-((isopropylamino)methyl)-10-methyl-2-oxo-2,5,6,7,8,10-hexahydro-1H-pyrido[2′,3′:4,5]azocino[3,2-f]indole-3-carboxylic acid hydrochloride] | 3.5 to 12.5 µg/mL | 12.5 to 150 µg/mL | 1 to 3.5 µg/mL | 
12 | CC1Cc2cc3c(cc2-c2[nH]c(=O)c(C(=O)O)c(O)c21)OCO3 (stereo not drawn) [Cpd 106, 4-hydroxy-5-methyl-2-oxo-1,2,5,6-tetrahydro-[1,3]dioxolo[4′,5′:4,5]benzo[1,2-h]quinoline-3-carboxylic acid] | 12.5 to 150 µg/mL (≈ 39.6 to 476 µM) | 12.5 to 150 µg/mL (≈ 39.6 to 476 µM) | 1 to 3.5 µg/mL (≈ 3.17 to 11.1 µM) | 
13 | CC1Cc2cc(N3CCCC3)ccc2-c2[nH]c(=O)c(C(=O)O)c(O)c21 (stereo not drawn) [Cpd 107, 4-hydroxy-5-methyl-2-oxo-8-(pyrrolidin-1-yl)-1,2,5,6-tetrahydrobenzo[h]quinoline-3-carboxylic acid] | 12.5 to 150 µg/mL (≈ 36.7 to 441 µM) | 3.5 to 12.5 µg/mL (≈ 10.3 to 36.7 µM) | < 1 µg/mL | 
14 | CC1Cc2cc(N(C)C)ccc2-c2[nH]c(=O)c(C(=O)O)c(O)c21 (stereo not drawn) [Cpd 108, 8-(dimethylamino)-4-hydroxy-5-methyl-2-oxo-1,2,5,6-tetrahydrobenzo[h]quinoline-3-carboxylic acid] | 12.5 to 150 µg/mL (≈ 39.8 to 477 µM) | 3.5 to 12.5 µg/mL (≈ 11.1 to 39.8 µM) | < 1 µg/mL | 
15 | CC1Cc2cc(N3CCC(N(C)C)C3)ccc2-c2[nH]c(=O)c(C(=O)O)c(O)c21.Cl (stereo not drawn) [Cpd 109, 8-(3-(dimethylamino)pyrrolidin-1-yl)-4-hydroxy-5-methyl-2-oxo-1,2,5,6-tetrahydrobenzo[h]quinoline-3-carboxylic acid hydrochloride] | 12.5 to 150 µg/mL | 12.5 to 150 µg/mL | 3.5 to 12.5 µg/mL | 
16 | CC1Cc2cc(N3C[C@@H]4[C@@H](N)[C@@H]4C3)ccc2-c2[nH]c(=O)c(C(=O)O)c(O)c21 (stereo partly drawn) [Cpd 110, 8-((cis,cis)-6-amino-3-azabicyclo[3.1.0]hexan-3-yl)-4-hydroxy-5-methyl-2-oxo-1,2,5,6-tetrahydrobenzo[h]quinoline-3-carboxylic acid trifluoroacetate] | 12.5 to 150 µg/mL | 12.5 to 150 µg/mL |  | 3.5 to 12.5 µg/mL
17 | Cl.O=C(O)c1c(O)c2c([nH]c1=O)-c1ccc(N3CCCNCC3)cc1CCC2 [Cpd 111, 9-(1,4-diazepan-1-yl)-4-hydroxy-2-oxo-2,5,6,7-tetrahydro-1H-benzo[6,7]cyclohepta[1,2-b]pyridine-3-carboxylic acid hydrochloride] | 12.5 to 150 µg/mL | 12.5 to 150 µg/mL | 1 to 3.5 µg/mL | 
18 | CN1CCCN(c2ccc3c(c2)CCCc2c-3[nH]c(=O)c(C(=O)O)c2O)CC1.Cl [Cpd 112, 4-hydroxy-9-(4-methyl-1,4-diazepan-1-yl)-2-oxo-2,5,6,7-tetrahydro-1H-benzo[6,7]cyclohepta[1,2-b]pyridine-3-carboxylic acid hydrochloride] | 3.5 to 12.5 µg/mL | 12.5 to 150 µg/mL | 1 to 3.5 µg/mL | 
19 | CN(C)CCNc1ccc2c(c1)CCCc1c-2[nH]c(=O)c(C(=O)O)c1O.Cl [Cpd 113, 9-((2-(dimethylamino)ethyl)amino)-4-hydroxy-2-oxo-2,5,6,7-tetrahydro-1H-benzo[6,7]cyclohepta[1,2-b]pyridine-3-carboxylic acid hydrochloride] | 12.5 to 150 µg/mL | 12.5 to 150 µg/mL | 3.5 to 12.5 µg/mL | 
20 | Cl.O=C(O)c1c(O)c2c([nH]c1=O)-c1ccc(N3C[C@H]4CCCN[C@H]4C3)cc1CCC2 [Cpd 114, 9-((4aR,7aR)-hexahydro-1H-pyrrolo[3,4-b]pyridin-6(2H)-yl)-4-hydroxy-2-oxo-2,5,6,7-tetrahydro-1H-benzo[6,7]cyclohepta[1,2-b]pyridine-3-carboxylic acid hydrochloride] | 3.5 to 12.5 µg/mL | 12.5 to 150 µg/mL | 1 to 3.5 µg/mL | 
21 | CN1CCC[C@@H]2CN(c3ccc4c(c3)CCCc3c-4[nH]c(=O)c(C(=O)O)c3O)C[C@@H]21.Cl [Cpd 115, 4-hydroxy-9-((4aR,7aR)-1-methylhexahydro-1H-pyrrolo[3,4-b]pyridin-6(2H)-yl)-2-oxo-2,5,6,7-tetrahydro-1H-benzo[6,7]cyclohepta[1,2-b]pyridine-3-carboxylic acid hydrochloride] | 12.5 to 150 µg/mL | 12.5 to 150 µg/mL | 3.5 to 12.5 µg/mL | 
22 | CN(C)C1CCN(c2ccc3c(c2)CCCc2c-3[nH]c(=O)c(C(=O)O)c2O)CC1.Cl [Cpd 116, 9-(4-(dimethylamino)piperidin-1-yl)-4-hydroxy-2-oxo-2,5,6,7-tetrahydro-1H-benzo[6,7]cyclohepta[1,2-b]pyridine-3-carboxylic acid hydrochloride] | 12.5 to 150 µg/mL | 12.5 to 150 µg/mL | 3.5 to 12.5 µg/mL | 
23 | CN(C)C1CCCN(c2ccc3c(c2)CCCc2c-3[nH]c(=O)c(C(=O)O)c2O)C1.Cl (stereo not drawn) [Cpd 117, 9-(3-(dimethylamino)piperidin-1-yl)-4-hydroxy-2-oxo-2,5,6,7-tetrahydro-1H-benzo[6,7]cyclohepta[1,2-b]pyridine-3-carboxylic acid hydrochloride] | 12.5 to 150 µg/mL | 12.5 to 150 µg/mL | 3.5 to 12.5 µg/mL | 
24 | Cl.O=C(O)c1c(O)c2c([nH]c1=O)-c1ccc(NC3CCNCC3)cc1CCC2 [Cpd 118, 4-hydroxy-2-oxo-9-(piperidin-4-ylamino)-2,5,6,7-tetrahydro-1H-benzo[6,7]cyclohepta[1,2-b]pyridine-3-carboxylic acid hydrochloride] | 12.5 to 150 µg/mL | 12.5 to 150 µg/mL | 12.5 to 150 µg/mL | 
25 | Cl.O=C(O)c1c(O)c2c([nH]c1=O)-c1ccc(N3CCNCC3)cc1CCC2 [Cpd 119, 4-hydroxy-2-oxo-9-(piperazin-1-yl)-2,5,6,7-tetrahydro-1H-benzo[6,7]cyclohepta[1,2-b]pyridine-3-carboxylic acid hydrochloride] | 12.5 to 150 µg/mL | 12.5 to 150 µg/mL | 3.5 to 12.5 µg/mL | 
